Organism: Rattus norvegicus
Experiment: Open TG-GATES - Regimen: Daily Repeat
Type: toxicity, organism-based, Sprague-Dawley
Set-up: regimen Daily Repeat, gender Male, age 6 weeks
Conditions: in vivo, po, route gavage; for APTT / Bas / Eos / Fbg / Hb / Ht / Lym / MCH / MCHC / Mono / Neu / Plat / RBC / Ret: tissue Blood; for KIDNEY_L / KIDNEY_R / KIDNEY_TOTAL: tissue Kidney; for LIVER: tissue Liver; for ALP / ALT / AST / BUN / CRE / Ca / Cl / DBIL / GLC / IP / K / LDH / Na / PL / RALB / TBIL / TC / TG / TP / gamma-GTP: tissue Plasma
[1] = 0 mg/kg, 72 h, dose level Control, time 3 day
[2] = 0 mg/kg, […], dose level Control, time 7 day
[3] = 0 mg/kg, […], dose level Control, time 14 day
[4] = 0 mg/kg, […], dose level Control, time 28 day
[5] = 3 mg/kg, 72 h, dose level Low, time 3 day
[6] = 3 mg/kg, […], dose level Low, time 7 day
[7] = 3 mg/kg, […], dose level Low, time 14 day
[8] = 3 mg/kg, […], dose level Low, time 28 day

O=C(CCCN1CCC(O)(c2ccc(Cl)cc2)CC1)c1ccc(F)cc1 [HALOPERIDOL]
TERMINAL_BW [1]: 226.4 g
APTT [1]: 16.5 s
Bas [1]: 0%
Eos [1]: 0.2%
Fbg [1]: 223.2 mg/dL
Hb [1]: 13.8 g/dL
Ht [1]: 41.1%
Lym [1]: 84.4%
MCH [1]: 21.8 pg
MCHC [1]: 33.6%
Mono [1]: 4%
Neu [1]: 11.4%
Plat [1]: 119.4 x10_4/uL
RBC [1]: 632.8 x10_4/ul
Ret [1]: 7.7%
KIDNEY_L [1]: 1 g
KIDNEY_R [1]: 1 g
KIDNEY_TOTAL [1]: 2 g
LIVER [1]: 11.1 g
ALP [1]: 915.2 IU/L
ALT [1]: 38 IU/L
AST [1]: 59.6 IU/L
BUN [1]: 19.2 mg/dL
CRE [1]: 0.6 mg/dL
Ca [1]: 11.2 mg/dL
Cl [1]: 105.8 meq/L
DBIL [1]: 0 mg/dL
GLC [1]: 191.2 mg/dL
IP [1]: 8.4 mg/dL
K [1]: 4.9 meq/L
LDH [1]: 91.8 IU/L
Na [1]: 139.2 meq/L
PL [1]: 166.2 mg/dL
RALB [1]: 4 g/dL
TBIL [1]: 0.2 mg/dL
TC [1]: 88 mg/dL
TG [1]: 96.6 mg/dL
TP [1]: 6 g/dL
gamma-GTP [1]: 1.6 IU/L
TERMINAL_BW [2]: 261.8 g
TERMINAL_BW [3]: 307.2 g
TERMINAL_BW [4]: 396.3 g
APTT [2]: 16.9 s
Bas [2]: 0%
Eos [2]: 0.8%
Fbg [2]: 216.4 mg/dL
Hb [2]: 13.9 g/dL
Ht [2]: 41.8%
Lym [2]: 80.4%
MCH [2]: 21.2 pg
MCHC [2]: 33.3%
Mono [2]: 4.8%
Neu [2]: 14%
Plat [2]: 104.8 x10_4/uL
RBC [2]: 658 x10_4/ul
Ret [2]: 5.8%
APTT [3]: 16.2 s
Bas [3]: 0%
Eos [3]: 0.2%
Fbg [3]: 224.2 mg/dL
Hb [3]: 14.6 g/dL
Ht [3]: 43.8%
Lym [3]: 78.4%
MCH [3]: 20.4 pg
MCHC [3]: 33.3%
Mono [3]: 5.2%
Neu [3]: 16.2%
Plat [3]: 107.4 x10_4/uL
RBC [3]: 716 x10_4/ul
Ret [3]: 3.7%
APTT [4]: 16.6 s
Bas [4]: 0%
Eos [4]: 0.8%
Fbg [4]: 235.8 mg/dL
Hb [4]: 15.1 g/dL
Ht [4]: 45.3%
Lym [4]: 80.8%
MCH [4]: 19.2 pg
MCHC [4]: 33.4%
Mono [4]: 5.8%
Neu [4]: 12.6%
Plat [4]: 105.5 x10_4/uL
RBC [4]: 787.6 x10_4/ul
Ret [4]: 3%
KIDNEY_L [2]: 1.1 g
KIDNEY_R [2]: 1.1 g
KIDNEY_TOTAL [2]: 2.1 g
KIDNEY_L [3]: 1.2 g
KIDNEY_R [3]: 1.2 g
KIDNEY_TOTAL [3]: 2.4 g
KIDNEY_L [4]: 1.4 g
KIDNEY_R [4]: 1.4 g
KIDNEY_TOTAL [4]: 2.8 g
LIVER [2]: 12.9 g
LIVER [3]: 14 g
LIVER [4]: 16.7 g
ALP [2]: 874.8 IU/L
ALT [2]: 33.4 IU/L
AST [2]: 59.4 IU/L
BUN [2]: 20.2 mg/dL
CRE [2]: 0.5 mg/dL
Ca [2]: 11.2 mg/dL
Cl [2]: 104.8 meq/L
DBIL [2]: 0.006 mg/dL
GLC [2]: 196 mg/dL
IP [2]: 7.4 mg/dL
K [2]: 4.6 meq/L
LDH [2]: 93 IU/L
Na [2]: 138.8 meq/L
PL [2]: 169.8 mg/dL
RALB [2]: 3.9 g/dL
TBIL [2]: 0.3 mg/dL
TC [2]: 83 mg/dL
TG [2]: 134.4 mg/dL
TP [2]: 5.9 g/dL
gamma-GTP [2]: 1.8 IU/L
ALP [3]: 784.8 IU/L
ALT [3]: 32.6 IU/L
AST [3]: 62.4 IU/L
BUN [3]: 21.2 mg/dL
CRE [3]: 0.5 mg/dL
Ca [3]: 10.7 mg/dL
Cl [3]: 106.8 meq/L
DBIL [3]: 0.01 mg/dL
GLC [3]: 195.4 mg/dL
IP [3]: 7.4 mg/dL
K [3]: 4.8 meq/L
LDH [3]: 93.2 IU/L
Na [3]: 138.2 meq/L
PL [3]: 161.2 mg/dL
RALB [3]: 3.9 g/dL
TBIL [3]: 0.3 mg/dL
TC [3]: 76.2 mg/dL
TG [3]: 149 mg/dL
TP [3]: 6.2 g/dL
gamma-GTP [3]: 1.4 IU/L
ALP [4]: 558 IU/L
ALT [4]: 30.4 IU/L
AST [4]: 58.8 IU/L
BUN [4]: 22.2 mg/dL
CRE [4]: 0.6 mg/dL
Ca [4]: 11.1 mg/dL
Cl [4]: 105 meq/L
DBIL [4]: 0.052 mg/dL
GLC [4]: 177.4 mg/dL
IP [4]: 7.8 mg/dL
K [4]: 4.6 meq/L
LDH [4]: 79.4 IU/L
Na [4]: 140 meq/L
PL [4]: 160.8 mg/dL
RALB [4]: 4.1 g/dL
TBIL [4]: 0.2 mg/dL
TC [4]: 75.2 mg/dL
TG [4]: 176.2 mg/dL
TP [4]: 6.6 g/dL
gamma-GTP [4]: 1.6 IU/L
TERMINAL_BW [5]: 219.6 g
APTT [5]: 16 s
Bas [5]: 0%
Eos [5]: 1.4%
Fbg [5]: 210 mg/dL
Hb [5]: 14.1 g/dL
Ht [5]: 42.1%
Lym [5]: 75.8%
MCH [5]: 21.4 pg
MCHC [5]: 33.5%
Mono [5]: 5%
Neu [5]: 17.8%
Plat [5]: 113.5 x10_4/uL
RBC [5]: 658.8 x10_4/ul
Ret [5]: 6.6%
KIDNEY_L [5]: 0.9 g
KIDNEY_R [5]: 0.9 g
KIDNEY_TOTAL [5]: 1.9 g
LIVER [5]: 10.7 g
ALP [5]: 995 IU/L
ALT [5]: 39.6 IU/L
AST [5]: 62 IU/L
BUN [5]: 21 mg/dL
CRE [5]: 0.5 mg/dL
Ca [5]: 11.3 mg/dL
Cl [5]: 106.2 meq/L
DBIL [5]: 0 mg/dL
GLC [5]: 183.6 mg/dL
IP [5]: 7.9 mg/dL
K [5]: 4.8 meq/L
LDH [5]: 76.4 IU/L
Na [5]: 138.6 meq/L
PL [5]: 195.4 mg/dL
RALB [5]: 4 g/dL
TBIL [5]: 0.2 mg/dL
TC [5]: 93.6 mg/dL
TG [5]: 112 mg/dL
TP [5]: 6 g/dL
gamma-GTP [5]: 1.4 IU/L
TERMINAL_BW [6]: 256.9 g
TERMINAL_BW [7]: 298.2 g
TERMINAL_BW [8]: 375.7 g
APTT [6]: 16.5 s
Bas [6]: 0%
Eos [6]: 0.2%
Fbg [6]: 217 mg/dL
Hb [6]: 14.3 g/dL
Ht [6]: 42.9%
Lym [6]: 79.2%
MCH [6]: 21.1 pg
MCHC [6]: 33.4%
Mono [6]: 4.4%
Neu [6]: 16.2%
Plat [6]: 100.7 x10_4/uL
RBC [6]: 678.4 x10_4/ul
Ret [6]: 5.1%
APTT [7]: 17.2 s
Bas [7]: 0%
Eos [7]: 0.8%
Fbg [7]: 226.4 mg/dL
Hb [7]: 15.1 g/dL
Ht [7]: 45.1%
Lym [7]: 76.6%
MCH [7]: 20.9 pg
MCHC [7]: 33.6%
Mono [7]: 5.2%
Neu [7]: 17.4%
Plat [7]: 108.9 x10_4/uL
RBC [7]: 723.2 x10_4/ul
Ret [7]: 4%
APTT [8]: 17.3 s
Bas [8]: 0%
Eos [8]: 0%
Fbg [8]: 223.4 mg/dL
Hb [8]: 15.2 g/dL
Ht [8]: 45.4%
Lym [8]: 84.4%
MCH [8]: 19.4 pg
MCHC [8]: 33.5%
Mono [8]: 2.4%
Neu [8]: 13.2%
Plat [8]: 99.3 x10_4/uL
RBC [8]: 782.4 x10_4/ul
Ret [8]: 2.3%
KIDNEY_L [6]: 1 g
KIDNEY_R [6]: 1.1 g
KIDNEY_TOTAL [6]: 2.1 g
KIDNEY_L [7]: 1.2 g
KIDNEY_R [7]: 1.2 g
KIDNEY_TOTAL [7]: 2.4 g
KIDNEY_L [8]: 1.3 g
KIDNEY_R [8]: 1.2 g
KIDNEY_TOTAL [8]: 2.5 g
LIVER [6]: 12.2 g
LIVER [7]: 13.3 g
LIVER [8]: 14.9 g
ALP [6]: 845.6 IU/L
ALT [6]: 33.2 IU/L
AST [6]: 61.4 IU/L
BUN [6]: 19.2 mg/dL
CRE [6]: 0.6 mg/dL
Ca [6]: 11.6 mg/dL
Cl [6]: 106.8 meq/L
DBIL [6]: 0 mg/dL
GLC [6]: 187.8 mg/dL
IP [6]: 7.7 mg/dL
K [6]: 4.6 meq/L
LDH [6]: 93.4 IU/L
Na [6]: 138.4 meq/L
PL [6]: 162 mg/dL
RALB [6]: 4 g/dL
TBIL [6]: 0.2 mg/dL
TC [6]: 74.6 mg/dL
TG [6]: 132 mg/dL
TP [6]: 6.1 g/dL
gamma-GTP [6]: 1.4 IU/L
ALP [7]: 747.6 IU/L
ALT [7]: 28.2 IU/L
AST [7]: 63.2 IU/L
BUN [7]: 20 mg/dL
CRE [7]: 0.5 mg/dL
Ca [7]: 11 mg/dL
Cl [7]: 106.4 meq/L
DBIL [7]: 0.01 mg/dL
GLC [7]: 178.4 mg/dL
IP [7]: 6.8 mg/dL
K [7]: 4.7 meq/L
LDH [7]: 89.6 IU/L
Na [7]: 137.8 meq/L
PL [7]: 144.8 mg/dL
RALB [7]: 4 g/dL
TBIL [7]: 0.3 mg/dL
TC [7]: 62.2 mg/dL
TG [7]: 144.2 mg/dL
TP [7]: 6.3 g/dL
gamma-GTP [7]: 1.8 IU/L
ALP [8]: 579.4 IU/L
ALT [8]: 62.6 IU/L
AST [8]: 58.8 IU/L
BUN [8]: 20.8 mg/dL
CRE [8]: 0.6 mg/dL
Ca [8]: 10.9 mg/dL
Cl [8]: 107.6 meq/L
DBIL [8]: 0.054 mg/dL
GLC [8]: 178.6 mg/dL
IP [8]: 6.7 mg/dL
K [8]: 4.5 meq/L
LDH [8]: 76.2 IU/L
Na [8]: 139 meq/L
PL [8]: 145 mg/dL
RALB [8]: 4.1 g/dL
TBIL [8]: 0.2 mg/dL
TC [8]: 62.8 mg/dL
TG [8]: 187.4 mg/dL
TP [8]: 6.6 g/dL
gamma-GTP [8]: 1.4 IU/L
